Laboratory results as given in ChEMBL document CHEMBL3997839, “Novel conjugates of endoperoxide and 4-anilinoquinazoline as potential anticancer agents” (Bioorg Med Chem Lett, 2017).
Calls of active or inactive are those of the source. The calls are words filed in the database; no cut-off is given here.

Legend:
A549 = test: Antiproliferative activity against human A549 cells harboring wild type EGFR after 48 hrs by MTT assay; type: functional, cell-based
[1] = molecular target: Epidermal growth factor receptor (Homo sapiens, UniProt P00533)
Epidermal growth factor receptor (Homo sapiens, UniProt P00533), sequence (P00533 whole entry): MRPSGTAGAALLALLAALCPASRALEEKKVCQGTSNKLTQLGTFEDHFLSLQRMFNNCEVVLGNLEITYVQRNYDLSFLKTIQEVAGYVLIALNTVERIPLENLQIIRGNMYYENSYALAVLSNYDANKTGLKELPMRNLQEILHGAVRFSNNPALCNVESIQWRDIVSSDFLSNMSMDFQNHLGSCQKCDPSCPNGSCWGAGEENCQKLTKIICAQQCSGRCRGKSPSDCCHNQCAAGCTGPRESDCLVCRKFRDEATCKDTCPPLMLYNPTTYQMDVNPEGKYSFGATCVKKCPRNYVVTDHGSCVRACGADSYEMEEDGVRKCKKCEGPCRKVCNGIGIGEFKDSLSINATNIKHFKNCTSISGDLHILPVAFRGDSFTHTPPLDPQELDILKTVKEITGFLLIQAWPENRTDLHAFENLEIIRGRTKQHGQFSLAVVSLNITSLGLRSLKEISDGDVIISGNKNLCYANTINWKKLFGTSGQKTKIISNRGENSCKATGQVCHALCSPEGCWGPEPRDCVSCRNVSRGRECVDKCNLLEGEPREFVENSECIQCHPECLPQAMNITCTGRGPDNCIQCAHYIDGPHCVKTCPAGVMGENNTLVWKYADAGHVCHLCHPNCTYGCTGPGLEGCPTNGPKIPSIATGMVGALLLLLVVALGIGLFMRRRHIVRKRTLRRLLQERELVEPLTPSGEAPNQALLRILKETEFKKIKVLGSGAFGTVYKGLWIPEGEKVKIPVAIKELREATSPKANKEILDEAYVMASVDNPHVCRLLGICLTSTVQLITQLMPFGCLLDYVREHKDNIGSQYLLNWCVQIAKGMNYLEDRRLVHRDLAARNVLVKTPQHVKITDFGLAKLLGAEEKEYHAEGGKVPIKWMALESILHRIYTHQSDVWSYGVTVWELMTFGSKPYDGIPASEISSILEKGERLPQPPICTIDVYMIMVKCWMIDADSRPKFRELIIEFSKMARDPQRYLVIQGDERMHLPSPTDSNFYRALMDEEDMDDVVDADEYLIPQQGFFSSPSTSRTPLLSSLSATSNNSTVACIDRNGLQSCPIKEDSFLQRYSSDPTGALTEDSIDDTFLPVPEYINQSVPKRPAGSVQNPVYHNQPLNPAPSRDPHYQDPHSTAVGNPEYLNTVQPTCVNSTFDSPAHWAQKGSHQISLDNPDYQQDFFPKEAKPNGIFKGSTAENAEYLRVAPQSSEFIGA
Description: Inhibition of recombinant human GST-tagged EGFR cytoplasmic domain (668 to 1210 residues) expressed in baculovirus expression system by Z'-Lyte assay

HCC827 = test: Antiproliferative activity against human HCC827 cells harboring EGFR E746_A750 deletion mutant after 48 hrs by MTT assay; type: functional, cell-based
[2] = molecular target: Epidermal growth factor receptor (Homo sapiens, UniProt P00533, L858R); type: cell-based
Epidermal growth factor receptor (Homo sapiens, UniProt P00533, L858R), sequence (P00533 25-1210 L858R limits assumed): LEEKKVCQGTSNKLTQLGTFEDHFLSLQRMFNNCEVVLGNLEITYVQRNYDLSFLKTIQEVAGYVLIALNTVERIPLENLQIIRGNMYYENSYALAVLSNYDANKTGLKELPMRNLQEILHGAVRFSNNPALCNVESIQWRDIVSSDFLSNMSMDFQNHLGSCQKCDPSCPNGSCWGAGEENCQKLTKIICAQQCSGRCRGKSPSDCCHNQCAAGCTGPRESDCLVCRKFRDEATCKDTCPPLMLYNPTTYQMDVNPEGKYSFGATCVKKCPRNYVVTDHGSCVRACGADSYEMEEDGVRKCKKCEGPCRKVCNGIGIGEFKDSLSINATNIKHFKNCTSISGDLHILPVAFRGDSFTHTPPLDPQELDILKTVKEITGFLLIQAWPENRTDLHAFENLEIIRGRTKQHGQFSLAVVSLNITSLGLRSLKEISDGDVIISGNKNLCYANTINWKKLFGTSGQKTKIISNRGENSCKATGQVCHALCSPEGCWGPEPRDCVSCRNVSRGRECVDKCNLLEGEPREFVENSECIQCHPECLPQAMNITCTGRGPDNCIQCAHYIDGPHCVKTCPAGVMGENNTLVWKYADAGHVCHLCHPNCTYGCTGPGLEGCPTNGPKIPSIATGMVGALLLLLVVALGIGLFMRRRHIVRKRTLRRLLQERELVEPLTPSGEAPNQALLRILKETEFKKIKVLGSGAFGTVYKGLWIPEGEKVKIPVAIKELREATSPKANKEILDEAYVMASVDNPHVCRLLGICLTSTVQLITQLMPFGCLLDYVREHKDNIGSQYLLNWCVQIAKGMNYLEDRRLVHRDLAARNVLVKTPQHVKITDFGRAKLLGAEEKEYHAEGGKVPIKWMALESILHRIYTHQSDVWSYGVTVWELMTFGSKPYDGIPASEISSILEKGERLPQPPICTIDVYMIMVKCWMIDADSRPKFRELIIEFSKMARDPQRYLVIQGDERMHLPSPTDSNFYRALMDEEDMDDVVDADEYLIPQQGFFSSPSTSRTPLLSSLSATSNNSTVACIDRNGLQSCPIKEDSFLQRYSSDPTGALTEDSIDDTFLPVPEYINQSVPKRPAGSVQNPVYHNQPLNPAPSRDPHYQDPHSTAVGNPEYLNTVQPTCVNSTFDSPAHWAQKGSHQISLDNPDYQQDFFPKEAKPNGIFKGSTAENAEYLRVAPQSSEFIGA

A-431 = test: Antiproliferative activity against EGFR over-expressing human A431 cells after 48 hrs by MTT assay; type: functional, cell-based
NCI-H1975 [3] = test: cells; type: functional, cell-based, Homo sapiens
L02 = test: Antiproliferative activity against human HL7702 cells after 48 hrs by MTT assay; type: ADME, cell-based
[4] = molecular target: Epidermal growth factor receptor (Homo sapiens, UniProt P00533, L858R/T790M); test: Inhibition of recombinant human GST-tagged EGFR L858R/T790M double mutant cytoplasmic domain (668 to 1210 residues) expressed in baculovirus expression system by Z'-Lyte assay
NCI-H1975 [5] = test: Induction of ROS generation in human NCI-H1975 cells harboring EGFR L858R/T790M double mutant at 100 uM after 4 hrs by DCFH-DA staining based flow cytometry; type: functional, cell-based
NCI-H1975 [6] = test: Induction of apoptosis in human NCI-H1975 cells harboring EGFR L858R/T790M double mutant assessed as increase in cleaved PARP expression at 2.5 to 10 uM after 24 hrs by Western blot method; type: functional, cell-based
NCI-H1975 [7] = test: Induction of apoptosis in human NCI-H1975 cells harboring EGFR L858R/T790M double mutant assessed as late apoptotic cells at 9 uM after 48 hrs by Annexin V/propidium iodide staining based flow cytometry (reference value: 7.2%); type: functional
NCI-H1975 [8] = test: Induction of apoptosis in human NCI-H1975 cells harboring EGFR L858R/T790M double mutant assessed as late apoptotic cells at 3 uM after 48 hrs by Annexin V/propidium iodide staining based flow cytometry (reference value: 7.2%); type: functional
NCI-H1975 [9] = test: Induction of apoptosis in human NCI-H1975 cells harboring EGFR L858R/T790M double mutant assessed as live cells at 9 uM after 48 hrs by Annexin V/propidium iodide staining based flow cytometry (reference value: 83.5%); type: functional
NCI-H1975 [10] = test: Induction of apoptosis in human NCI-H1975 cells harboring EGFR L858R/T790M double mutant after 48 hrs by Annexin V/propidium iodide staining based flow cytometry; type: functional, cell-based
NCI-H1975 [11] = test: Induction of apoptosis in human NCI-H1975 cells harboring EGFR L858R/T790M double mutant assessed as necrotic cells at 6 uM after 48 hrs by Annexin V/propidium iodide staining based flow cytometry (reference value: 4.13%); type: functional
NCI-H1975 [12] = test: Induction of apoptosis in human NCI-H1975 cells harboring EGFR L858R/T790M double mutant assessed as necrotic cells at 3 uM after 48 hrs by Annexin V/propidium iodide staining based flow cytometry (reference value: 4.13%); type: functional
NCI-H1975 [13] = test: Induction of apoptosis in human NCI-H1975 cells harboring EGFR L858R/T790M double mutant assessed as early apoptotic cells at 6 uM after 48 hrs by Annexin V/propidium iodide staining based flow cytometry (reference value: 4.1%); type: functional
NCI-H1975 [14] = test: Induction of apoptosis in human NCI-H1975 cells harboring EGFR L858R/T790M double mutant assessed as live cells at 6 uM after 48 hrs by Annexin V/propidium iodide staining based flow cytometry (reference value: 83.5%); type: functional
NCI-H1975 [15] = test: Induction of apoptosis in human NCI-H1975 cells harboring EGFR L858R/T790M double mutant assessed as necrotic cells at 9 uM after 48 hrs by Annexin V/propidium iodide staining based flow cytometry (reference value: 4.13%); type: functional
NCI-H1975 [16] = test: Induction of apoptosis in human NCI-H1975 cells harboring EGFR L858R/T790M double mutant assessed as live cells at 3 uM after 48 hrs by Annexin V/propidium iodide staining based flow cytometry (reference value: 83.5%); type: functional
NCI-H1975 [17] = test: Induction of ROS generation in human NCI-H1975 cells harboring EGFR L858R/T790M double mutant assessed as fluorescence level at 12 uM after 4 hrs by DCFH-DA staining based flow cytometry; type: functional
NCI-H1975 [18] = test: Induction of apoptosis in human NCI-H1975 cells harboring EGFR L858R/T790M double mutant assessed as early apoptotic cells at 3 uM after 48 hrs by Annexin V/propidium iodide staining based flow cytometry (reference value: 4.1%); type: functional
NCI-H1975 [19] = test: Induction of apoptosis in human NCI-H1975 cells harboring EGFR L858R/T790M double mutant assessed as late apoptotic cells at 6 uM after 48 hrs by Annexin V/propidium iodide staining based flow cytometry (reference value: 7.2%); type: functional
NCI-H1975 [20] = test: Induction of ROS generation in human NCI-H1975 cells harboring EGFR L858R/T790M double mutant assessed as fluorescence level at 6 uM after 4 hrs by DCFH-DA staining based flow cytometry; type: functional
NCI-H1975 [21] = test: Induction of ROS generation in human NCI-H1975 cells harboring EGFR L858R/T790M double mutant assessed as fluorescence level at 3 uM after 4 hrs by DCFH-DA staining based flow cytometry; type: functional
NCI-H1975 [22] = test: Induction of apoptosis in human NCI-H1975 cells harboring EGFR L858R/T790M double mutant assessed as early apoptotic cells at 9 uM after 48 hrs by Annexin V/propidium iodide staining based flow cytometry (reference value: 4.1%); type: functional
NCI-H1975 [23] = test: Induction of ROS generation in human NCI-H1975 cells harboring EGFR L858R/T790M double mutant after 4 hrs by DCFH-DA staining based flow cytometry; type: functional, cell-based
NCI-H1975 [24] = test: Induction of ROS generation in human NCI-H1975 cells harboring EGFR L858R/T790M double mutant at 15 to 60 uM after 4 hrs by DCFH-DA staining based flow cytometry; type: functional, cell-based

| SMILES | IC50 [1] [nM] | IC50 [2] [nM] | IC50 (A549; Homo sapiens, A549, 48 h) [nM] | IC50 (HCC827; Homo sapiens, HCC827, 48 h) [nM] | IC50 (A-431; Homo sapiens, A-431, 48 h) [nM] | IC50 [4] [nM] | IC50 (NCI-H1975 [3]; Homo sapiens, NCI-H1975, 48 h) [nM] | IC50 (L02; Homo sapiens, L02, 48 h) [nM] | other results |
| --- | --- | --- | --- | --- | --- | --- | --- | --- | --- |
| O=C(Nc1ccc2nccc(Nc3cccc(Cl)c3)c2c1)C1CCC2(CC1)OOC1(O2)C2CC3CC(C2)CC1C3 (stereo in doubt; 14) | 128 | 146 | – | – | – | – | – | – | IC50 (A549; a549): 18300 nM; IC50 (HCC827; hcc827): 17000 nM; IC50 (A-431; a-431): 13600 nM; IC50 (NCI-H1975 [3]; nci-h1975): 22300 nM; IC50 (L02; l02): > 50000 nM |
| CC1(C)OOC2(CCC(C(=O)Nc3ccc4ncnc(Nc5cccc(Cl)c5)c4c3)CC2)OO1 | 11.4 | 17.1 | 3620 | 260 | 19600 | > 10000 | 1770 | 25800 | – |
| O=C(Nc1ccc2nccc(Nc3cccc(Cl)c3)c2c1)C1CCC2(CC1)OCC1(OO2)C2CC3CC(C2)CC1C3 (centres undefined) | 169 | 132 | 26100 | 31600 | > 50000 | > 10000 | > 50000 | > 100000 | Activity (NCI-H1975 [5]): inactive |
| Nc1ccc2ncnc(Nc3cccc(Cl)c3)c2c1 | – | – | – | – | – | – | – | – | IC50 (A549; a549): > 100000 nM; IC50 (HCC827; hcc827): 100 nM; IC50 (A-431; a-431): > 50000 nM; IC50 (NCI-H1975 [3]; nci-h1975): > 50000 nM; IC50 (L02; l02): > 100000 nM |
| O=C(Nc1ccc2ncnc(Nc3cccc(Cl)c3)c2c1)C1CCC2(CC1)OOC1(OO2)C2CC3CC(C2)CC1C3 (centres undefined) | 380 | 374 | 920 | 310 | 8060 | > 10000 | 3060 | 5700 | Activity (NCI-H1975 [6]): Active; Activity (NCI-H1975 [7]): 19.8%; Activity (NCI-H1975 [8]): 7.47%; Activity (NCI-H1975 [9]): 52.2%; Activity (NCI-H1975 [10]): Dose-dependent effect; Activity (NCI-H1975 [11]): 4.26%; Activity (NCI-H1975 [12]): 4.57%; Activity (NCI-H1975 [13]): 12.7%; Activity (NCI-H1975 [14]): 74.2%; Activity (NCI-H1975 [15]): 9.31%; Activity (NCI-H1975 [16]): 83.5%; Flu intensity (NCI-H1975 [17]): 6.42; Activity (NCI-H1975 [18]): 7.54%; Activity (NCI-H1975 [19]): 8.12%; Flu intensity (NCI-H1975 [20]): 3.53; Flu intensity (NCI-H1975 [21]): 2.59; Activity (NCI-H1975 [22]): 7.56%; Activity (NCI-H1975 [23]): Dose-dependent effect |
| O=C(Nc1ccc2ncnc(Nc3cccc(Cl)c3)c2c1)C1CCC2(CC1)OOC1(CCCCC1)OO2 | 83.8 | 112 | 870 | 50 | 3990 | > 10000 | 890 | 1430 | – |
| COc1cc2ncnc(Nc3ccc(F)c(Cl)c3)c2cc1OCCCN1CCOCC1 | – | – | – | – | – | – | – | – | Activity (NCI-H1975 [24]): inactive |
